Measured values taken from patent US10981879B2, “Thioether triazolopyridine and triazolopyrimidine inhibitors of myeloperoxidase” (BRISTOL-MYERS SQUIBB COMPANY, priority 2014, dated 2021).

How the values were obtained:
myeloperoxidase (MPO) [1] = target: T1, myeloperoxidase (MPO) (Homo sapiens (Human), UniProt P05164); experiment: MPO peroxidation assay (Amplex Red); format: biochemical; details: Table 1
Method: MPO peroxidation activity was measured in 100 mM KPi (pH 7.4) by utilizing the non-fluorescent reagent Amplex Red (Invitrogen catalog #A12222) which can be oxidized to the highly fluorescent resorufin. Amplex Red is oxidized by the peroxidase action of MPO to resorufin. Reactions were carried out in 50 μL total volume by adding a 25 μL mixture of 200 pM myeloperoxidase and 40 nM H2O2 (Sigma #349887) to 100 nL inhibitor in 100% DMSO in a 384 well Perkin Elmer Optiplate. Enzyme and compound were preincubated for ten minutes at rt.
After the ten minute preincubation, 25 μL of an Amplex Red mixture containing 200 μM Amplex Red and 10 mM H2O2 was added to the plate. Kinetic determinations were carried out immediately on a Perkin Elmer Envision (15 minute kinetic read, Ex: 535 nm, Em: 590 nm).
IC50 values were calculated by determining the slope of the linear portion of the kinetic trace (180-540 secs), and using that calculated slope to determine % inhibition occurring at each concentration of inhibitor using the following equation:
[formula] where A=minimal Y value (activity level of inhibited sample), B=maximal Y value (activity level of uninhibited sample), C=Log IC50, D=Hill Slope, x=concentration of inhibitor. MPO Chlorination Assay

myeloperoxidase (MPO) [2] = target: T1, myeloperoxidase (MPO); experiment: MPO chlorination assay (APF); format: biochemical; details: MPO chlorination assay (APF), Table 1; read-out: APF IC50
Summary of the method: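 Human MPO (200 pM) with 120 mM NaCl preincubated with inhibitor 10 minutes at rt in 100 mM KPi pH 7.4. Reaction started with APF mixture containing 10 μM H2O2; fluorescein fluorescence (ex 485/em 535 nm) read kinetically 3 minutes. IC50 from slopes of linear kinetic portion, fitted with a four-parameter Hill equation.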

T1 sequence (P05164 49-745): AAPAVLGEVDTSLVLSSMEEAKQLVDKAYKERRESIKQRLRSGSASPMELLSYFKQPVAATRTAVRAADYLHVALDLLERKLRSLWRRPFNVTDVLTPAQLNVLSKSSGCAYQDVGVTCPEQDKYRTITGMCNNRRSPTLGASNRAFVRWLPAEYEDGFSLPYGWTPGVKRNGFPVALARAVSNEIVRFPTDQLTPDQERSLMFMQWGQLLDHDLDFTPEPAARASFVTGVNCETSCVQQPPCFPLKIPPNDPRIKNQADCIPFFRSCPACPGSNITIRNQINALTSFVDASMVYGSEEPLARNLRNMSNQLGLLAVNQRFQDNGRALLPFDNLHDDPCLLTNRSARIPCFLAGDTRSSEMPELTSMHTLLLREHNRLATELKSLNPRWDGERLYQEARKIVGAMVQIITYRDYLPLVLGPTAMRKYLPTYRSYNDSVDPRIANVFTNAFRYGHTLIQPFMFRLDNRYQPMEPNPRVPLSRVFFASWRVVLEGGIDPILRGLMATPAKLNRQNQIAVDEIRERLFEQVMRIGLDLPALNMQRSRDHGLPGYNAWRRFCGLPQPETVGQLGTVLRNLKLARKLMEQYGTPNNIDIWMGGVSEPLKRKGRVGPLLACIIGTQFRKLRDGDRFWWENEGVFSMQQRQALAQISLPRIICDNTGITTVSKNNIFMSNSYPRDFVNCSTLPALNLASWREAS

IC50 (myeloperoxidase (MPO) [1]) [nM] | IC50 (myeloperoxidase (MPO) [2]) [nM] | Compound
20 | 80 | CCC(Sc1cc(N)nc2[nH]nnc12)c1ccccc1 (centres unmarked) [Example 45, 7-((1-phenylpropyl)thio)-3H-[1,2,3]triazolo[4,5-b] pyridin-5-amine]
140 | 610 | Cc1ncn(C)c1CSc1cc(N)nc2[nH]nnc12 [Example 77, 7-(((1,4-dimethyl-1H-imidazol-5-yl)methyl)thio)-3H-[1,2,3]triazolo[4,5-b] pyridin-5-amine]
20 | 80 | Nc1cc(SC(CO)c2ccccc2)c2nn[nH]c2n1 (centres unmarked) [Example 126, 2-((5-Amino-3H-[1,2,3]triazolo[4,5-b]pyridin-7-yl)thio)-2-phenylethanol]
100 | 530 | Nc1cc(SCc2cnn(C3CCCCC3)c2C(F)(F)F)c2nn[nH]c2n1 [Example 116, 7-(((1-cyclohexyl-5-(trifluoromethyl)-1H-pyrazol-4-yl)methyl)thio)-3H-[1,2,3]triazolo[4,5-b] pyridin-5-amine]
460 | 580 | Cc1nn(-c2ccc(F)cc2)c(C)c1CSc1cc(N)nc2[nH]nnc12 [Example 72, 7-(((1-(4-fluorophenyl)-3,5-dimethyl-1H-pyrazol-4-yl)methyl)thio)-3H-[1,2,3] triazolo[4,5-b]pyridin-5-amine]
20 | 10 | Nc1cc(SCc2cn(-c3ccccc3)nc2C(F)(F)F)c2nn[nH]c2n1 [Example 113, 7-(((1-phenyl-3-(trifluoromethyl)-1H-pyrazol-4-yl)methyl)thio)-3H-[1,2,3]triazolo[4,5-b] pyridin-5-amine]
10 | 20 | Nc1cc(SCc2cc(C(F)(F)F)ccc2C(F)(F)F)c2nn[nH]c2n1 [Example 39, 7-((2,5-bis(trifluoromethyl)benzyl)thio)-3H-[1,2,3] triazolo[4,5-b]pyridin-5-amine]
40 | 80 | Nc1cc(SCc2cn(-c3cccnn3)nc2C(F)F)c2nn[nH]c2n1 [Example 144]
10 | 20 | Nc1cc(SCc2cc(F)ccc2OC(F)(F)F)c2nn[nH]c2n1 [Example 66, 7-((5-fluoro-2-(trifluoromethoxy)benzyl)thio)-3H-[1,2,3]triazolo[4,5-b]pyridin-5-amine]
100 | 500 | Nc1cc(SCc2ncccn2)c2nn[nH]c2n1 [Example 57, 7-((pyrimidin-2-ylmethyl)thio)-3H-[1,2,3]triazolo[4,5-b]pyridin-5-amine]
30 | 9 | N#Cc1ccc(C2CC2)c(CSc2cc(N)nc3[nH]nnc23)c1 [Example 88, 3-(((5-amino-3H-[1,2,3]triazolo[4,5-b]pyridin-7-yl)thio)methyl)-4-cyclopropylbenzonitrile]
170 | 10 | Nc1cc(SCc2cn(-c3ccc(N4CCCC4)nc3)nc2C(F)(F)F)c2nn[nH]c2n1 [Example 139]
50 | 760 | CCOC(=O)c1cc(CSc2cc(N)nc3[nH]nnc23)n(C)n1 [Example 70, ethyl 5-(((5-amino-3H-[1,2,3]triazolo[4,5-b]pyridin-7-yl)thio)methyl)-1-methyl-1H-pyrazole-3-carboxylate]
20 | 80 | Nc1cc(SCc2ccccc2-n2cccn2)c2nn[nH]c2n1 [Example 41, 7-((2-(1H-pyrazol-1-yl)benzyl)thio)-3H-[1,2,3] triazolo[4,5-b]pyridin-5-amine]

Compound | IC50 (myeloperoxidase (MPO) [1]) [nM] | IC50 (myeloperoxidase (MPO) [2]) [nM]
Nc1cc(SCc2ccccc2F)c2nn[nH]c2n1 [Example 3, 7-((2-fluorobenzyl)thio)-3H-[1,2,3]triazolo [4,5-b]pyridin-5-amine] | 7 | 10
Nc1cc(SCc2cc(F)c(-c3ncon3)cc2F)c2nn[nH]c2n1 [Example 28, 7-((2,5-difluoro-4-(1,2,4-oxadiazol-3-yl)benzyl)thio)-3H-[1,2,3]triazolo[4,5-b] pyridin-5-amine] | 10 | 80
